Test results published in patent US20110212943A1, “NOVEL BRIDGED CYCLIC COMPOUNDS AS HISTONE DEACETYLASE INHIBITORS” (ORCHID RESEARCH LABORATORIES LIMITED, priority 2008, published 2011).

Tests used:
[1] = target: HDAC (Mouse Liver Extract); assay: Histone Deacetylase (HDAC) Inhibition Assay using Boc-Lys (Ac)-AMC Substrate; assay type: biochemical; conditions: Mouse liver enzyme, 30 minutes at 37° C.
Experimental: Histone Deacetylase (HDAC) Inhibition Assay using Boc-Lys (Ac)-AMC Substrate: Inhibition of HDAC has been implicated to modulate transcription and to induce apoptosis or differentiation in cancer cells. The fluorometric assay provides a fast and fluorescence based method that eliminates radioactivity, extractions or chromatography, as used in traditional assays. The assay is based on two steps. First, the HDAC fluorometric substrate, which comprises an acetylated lysine side chain, is incubated with a sample containing HDAC activity (Mouse Liver Extract). Deacetylation of the substrate sensitizes the substrate, in the second step; treatment with the Trypsin stop solution produces a fluorophore that can be easily analyzed using fluorescence plate reader.
Assay was done in 96-well black microplate and total volume of the assay was 100 μL. Mouse liver enzyme (10 mg/mL) was diluted 1:6 with HDAC buffer. Enzyme cocktail was made of 10 μL of diluted enzyme and 30 μL of HDAC buffer. 40 μL of enzyme cocktail followed by 10 μL of test compound (1 μM and 10 μM) or buffer (control) was added to each well. The plate was pre-incubated at 37° C. for 5 minutes. The HDAC reaction was started by adding 50 μL of HDAC substrate Boc-Lys (Ac)-AMC (Bachem AG, Switzerland). The plate was incubated at 37° C. for 30 minutes. The reaction was stopped by adding 100 μL of Trypsin stop solution and incubating at 37° C. for 15-30 minutes. Measuring the fluorescence at excitation wavelength of 360 nm and emission wavelength of 460 nm monitored the release of AMC. Buffer alone and substrate alone served as blank.

[2] = system: HCT 116 (colon), NCIH460 (lung) and U251 (glioma) cell lines; assay: Anti-cancer screen (MTT growth inhibition); assay type: cell-based; conditions: mean over HCT 116, NCIH460 and U251 cell lines, 48 hours of incubation
Experimental: Experimental drugs were screened for anti-cancer activity in three cell lines using five concentrations for each compound. The cell lines—HCT 116 (colon), NCIH460 (lung) and U251 (glioma) were maintained in DMEM containing 10% fetal bovine serum. 96-well microtiter plates are inoculated with cells in 100 μL of cell suspension (5×10^4 cells/mL) for 24 hours at 37° C., 5% CO2, 95% air and 100% relative humidity. A separate plate with these cell lines is also inoculated to determine cell viability before the addition of the compounds (T0)
Following 24-hour incubation, test compounds were added to the 96 well plates. Each plate contains one of the above cell lines and the following samples in triplicate: five different dilutions (0.01, 0.1, 1, 10 and 100 μM) of four test compounds, appropriate dilutions of a cytotoxic standard and growth medium (untreated) wells. Test compounds were dissolved in DMSO to prepare 20 mM stock solutions on the day of drug addition and serial dilutions were carried out in complete growth medium at 2× strength such that 100 μL added to wells gave final concentrations (0.01, 0.1, 1, 10 and 100 μM) in the well. SAHA was used as standard drug in these experiments.
For T0 measurement, 24 hours after seeding the cells, 20 μL of 3-(4,5-dimethyl-2-thiazolyl)-2,5-diphenyl-2H-tetrazolium (MIT) solution per well was added to the ‘T0’ plate and incubated for 3 hours at 37° C. in a CO2 incubator. The plate containing cells and test compounds was treated similarly after 48 hours of incubation. After 3 hours of MTT addition, well contents were aspirated carefully followed by addition of 150 μL DMSO per well. Plates were agitated to ensure dissolution of the formazan crystals in DMSO and absorbance was read at 570 nm (A570).
Percent growth (PG) is calculated relative to the control and zero measurement wells (T0) as follows:
(Mosmann T. Rapid colorimetric assay for cellular growth and survival: application to proliferation and cytotoxicity assays. (J. Immunol. Methods. 1983, 65 (1-2), 55-63; Anne Monks et al). Feasibility of high-flux anticancer drug screen using a diverse panel of cultured human tumor cell lines”. (JNCI, Vol. 83, No. 11, 1991, 757-766).

Row | SMILES | IC50 [1] [nM] | GI50 [2] [nM]
1 | COC12CC3CC(CC(NCc4ccc(/C=C/C(=O)NO)cc4)(C3)C1)C2 [Example 3, (2E)-N-hydroxy-3-(4-{[(3-methoxyadamant-1-yl)amino]methyl}phenyl)acrylamide] | 260 | 5200
2 | O=C(/C=C/c1ccc(CNCC23CC4CC(CC(O)(C4)C2)C3)cc1)NO [Example 11, (2E)-N-hydroxy-3-[4-({[(3-hydroxyadamant-1-yl)methyl]amino}methyl)phenyl]acrylamide] | 9.06 | 100
3 | O=C(C=Cc1ccc(CNCCNC(=O)C23CC4CC(CC(C4)C2)C3)cc1)NO [Example 29, N-[2-({4-[(1E)-3-(hydroxyamino)-3-oxoprop-1-en-1-yl]benzyl}amino)ethyl]adamantine-1-carboxamide] | 10.4 | 200
4 | O=C(/C=C/c1ccc(CNC23CC4CC(CC(CO)(C4)C2)C3)cc1)NO [Example 9, (2E)-3-(4-{[(3-hydroxymethyladamant-1-yl)amino]methyl}phenyl)-N-hydroxy acrylamide] | 240 | 6100
5 | Nc1ccccc1NC(=O)/C=C/c1ccc(CNC23CC4CC(CC(O)(C4)C2)C3)cc1 [Example 13, (2E)-N-(2-aminophenyl)-3-{4-[(3-hydroxyadamant-1-ylamino)methyl]phenyl}acrylamide] | 5400 | 52000
6 | Nc1ccccc1NC(=O)/C=C/c1ccc(CNC23CC4CC(CC(C4)C2)C3)cc1 [Example 12, (2E)-N-(2-aminophenyl)-3-{4-[(adamant-1-ylamino)methyl]phenyl}acrylamide] | 4300 | 7000
7 | CC12CC3CC(C)(C1)CC(NCc1ccc(/C=C/C(=O)NO)cc1)(C3)C2 [Example 5, (2E)-3-(4-{[(3,5-dimethyladamant-1-yl)amino]methyl}phenyl)-N-hydroxyacrylamide] | 30 | 1100
8 | O=C(CCCCCCC(=O)Nc1ccccc1)NO [SAHA, suberoylanilide hydroxamic acid, reference compound] | – | 1260
9 | CCOC12CC3CC(CC(NCc4ccc(/C=C/C(=O)NO)cc4)(C3)C1)C2 [Example 4, (2E)-N-hydroxy-3-(4-{[(3-ethoxyadamant-1-yl)amino]methyl}phenyl)acrylamide] | 460 | 3300
10 | O=C(/C=C/c1ccc(CNC23CC4CC(C2)CC(c2ccccc2)(C4)C3)cc1)NO [Example 8, (2E)-3-(4-{[(3-phenyladamant-1-yl)amino]methyl}phenyl)-N-hydroxyacrylamide] | 440 | 3500

The remaining lines, values ahead:

Row | IC50 [1] [nM] | GI50 [2] [nM] | SMILES
11 | 160 | 400 | O=C(/C=C/c1ccc(CNC2C3CC4CC2CC(O)(C4)C3)cc1)NO (stereo not shown) [Example 16, (2E)-N-hydroxy-3-(4-{[(5-hydroxyadamant-2-yl)amino]methyl}phenyl)acrylamide]
12 | 110 | 4200 | O=C(/C=C/c1ccc(CNC(=O)CC2C3CC4CC2CC(O)(C4)C3)cc1)NO (stereo not shown) [Example 24, (2E)-N-hydroxy-3-[4-({[(5-hydroxyadamant-2-yl)acetyl]amino}methyl)phenyl]acrylamide]
13 | 80 | 4400 | O=C(/C=C/c1ccc(CNCC(=O)NC23CC4CC(CC(C4)C2)C3)cc1)NO [Example 28, (2E)-3-[4-({[2-(adamant-1-ylamino)-2-oxoethyl]amino}methyl)phenyl]-N-hydroxyacrylamide]
14 | 43 | 2100 | O=C(C=C1C2CC3CC(C2)CC1C3)NCc1ccc(/C=C/C(=O)NO)cc1 [Example 21, (2E)-N-hydroxy-3-(4-{[(tricyclo[3.3.1.1^3,7]dec-2-ylideneacetyl)amino]methyl}phenyl)acrylamide]
15 | 250 | 5100 | O=C(/C=C/c1ccc(CNC23CC4CC(CC(O)(C4)C2)C3)cc1)NO [Example 2, (2E)-N-hydroxy-3-(4-{[(3-hydroxyadamant-1-yl)amino]methyl}phenyl)acrylamide]
16 | 0.28 | 290 | O=C(C=Cc1ccc(CNCCC2C3CC4CC(C3)CC2C4)cc1)NO (stereo not shown) [Example 17, (2E)-N-hydroxy-3-[4-({[adamant-2-yl)ethyl]amino}methyl)phenyl]acrylamide]
17 | 28 | 220 | O=C(/C=C/c1ccc(CNCCC2C3CC4CC2CC(O)(C4)C3)cc1)NO (stereo not shown) [Example 19, (2E)-N-hydroxy-3-[4-({[(5-hydroxyadamant-2-yl)ethyl]amino}methyl)phenyl]acrylamide]
18 | 0.385 | 10 | O=C(/C=C/c1ccc(CNCC23CC4CC(CC2C4)C3)cc1)NO [Example 32, (2E)-N-hydroxy-3-(4-{[(tricyclo[3.3.1.0^3,7]non-3-ylmethyl)amino]methyl}phenyl)acrylamide]
19 | 60 | 150 | O=C(/C=C/c1ccc(CNC2C3CC4CC(C3)CC2C4)cc1)NO (stereo not shown) [Example 15, (2E)-3-{4-[(adamant-2-ylamino)methyl]phenyl}-N-hydroxyacrylamide]
20 | 70 | 1800 | O=C(/C=C/c1ccc(CNC23CC4CC(CC(C4)C2)C3)cc1)NO [Example 1, (2E)-3-{4-[(adamant-1-ylamino)methyl]phenyl}-N-hydroxyacrylamide]
21 | 1.8 | 180 | O=C(/C=C/c1ccc(CNC(=O)CC23CC4CC(CC(C4)C2)C3)cc1)NO [Example 23, (2E)-3-(4-{[(adamant-1-ylacetyl)amino]methyl}phenyl)-N-hydroxyacrylamide]
22 | 67 | 100 | O=C(/C=C/c1ccc(CNC(=O)C23CC4CC(CC(C4)C2)C3)cc1)NO [Example 25, N-{4-[(1E)-3-(hydroxyamino)-3-oxoprop-1-en-1-yl]benzyl}adamantane-1-carboxamide]
23 | 110 | 2800 | O=C(/C=C/c1ccc(CN2CC3CC4CC(C3)CC2C4)cc1)NO [Example 6, (2E)-3-[4-(4-azatricyclo[4.3.1.1^3,8]undec-4-ylmethyl)phenyl]-N-hydroxyacrylamide]
24 | 40 | 9700 | O=C(/C=C/c1ccc(CNC23CC4CC(CC(Cl)(C4)C2)C3)cc1)NO [Example 7, (2E)-3-(4-{[(3-chloroadamant-1-yl)amino]methyl}phenyl)-N-hydroxyacrylamide]
25 | 8 | 1200 | O=C(/C=C/c1ccc(CNC(=O)CC2C3CC4CC(C3)CC2C4)cc1)NO (stereo not shown) [Example 20, (2E)-N-hydroxy-3-(4-{[(adamantyl-2-ylacetyl)amino]methyl}phenyl)acrylamide]
